Earlier results as cited in patent US7265128B2, “3-amino-4-phenylbutanoic acid derivatives as dipeptidyl peptidase inhibitors for the treatment or prevention of diabetes” (Merck & Co., Inc., priority 2003, dated 2007).
Each block holds one molecule with its values, some of them ahead of it.

Columns and labels:
mouse = conditions: cyclophosphamide-induced neutropenia
DP-IV = molecular target: T1, DP-IV (Homo sapiens, UniProt P27487)
T1 construct: GRF is rapidly degraded in plasma to GRF[3-44]

rats = conditions: survival doubled from day 7

T1 sequence (P27487 whole entry): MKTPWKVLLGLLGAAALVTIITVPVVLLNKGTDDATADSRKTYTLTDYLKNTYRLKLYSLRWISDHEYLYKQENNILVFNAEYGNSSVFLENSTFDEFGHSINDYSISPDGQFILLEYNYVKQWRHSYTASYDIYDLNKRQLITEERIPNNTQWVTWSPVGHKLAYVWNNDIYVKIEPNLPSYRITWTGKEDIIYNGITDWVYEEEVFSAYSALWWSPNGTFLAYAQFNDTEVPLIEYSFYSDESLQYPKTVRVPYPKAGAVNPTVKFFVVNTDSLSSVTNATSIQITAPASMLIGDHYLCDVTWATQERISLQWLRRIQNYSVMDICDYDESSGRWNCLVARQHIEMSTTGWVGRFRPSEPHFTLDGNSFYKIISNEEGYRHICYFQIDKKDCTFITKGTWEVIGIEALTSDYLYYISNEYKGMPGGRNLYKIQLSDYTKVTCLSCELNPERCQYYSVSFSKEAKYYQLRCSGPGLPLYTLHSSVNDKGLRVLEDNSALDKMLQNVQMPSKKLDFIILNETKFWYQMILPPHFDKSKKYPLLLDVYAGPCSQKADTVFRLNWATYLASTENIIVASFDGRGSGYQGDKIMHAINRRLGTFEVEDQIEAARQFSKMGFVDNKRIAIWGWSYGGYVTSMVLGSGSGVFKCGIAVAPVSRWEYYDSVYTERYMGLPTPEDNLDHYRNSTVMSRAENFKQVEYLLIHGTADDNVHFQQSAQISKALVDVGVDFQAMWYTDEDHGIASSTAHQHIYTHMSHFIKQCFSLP

Molecule: CC(C)[C@H](N)C(=O)N1CCC[C@H]1B(O)O [Val-Boro-Pro]
hematopoiesis (mouse): stimulated hematopoiesis

degradation of GRF in plasma to GRF[3-44] (DP-IV): prevented
Molecule: diprotin A

Molecule: CC(C)N1CCC(c2ccccc2)(c2ccccc2)CC1 [Prodipine, Pro-Pro-diphenyl-phosphonate]
cardiac allograft survival (rats): 14 day
